A short description of this data set: Log P by HPLC on reversed phase columns (EEC directive 79/831 Annex V.A8). Format: physicochemical. The protocol: Measurement of Log P values was performed according to EEC directive 79/831 Annex V.A8 by HPLC (High Performance Liquid Chromatography) on reversed phase columns with the following methods: • ^[a]Log P value is determined by measurement of LC-UV, in an acidic range, with 0.1% formic acid in water and acetonitrile as eluent (linear gradient from 10% acetonitrile to 95% acetonitrile). • ^[b]Log P value is determined by measurement of LC-UV, in a neutral range, with 0.001 molar ammonium acetate solution in water and acetonitrile as eluent (linear gradient from 10% acetonitrile to 95% acetonitrile). • ^[c]Log P value is determined by measurement of LC-UV, in an acidic range, with 0.1% phosphoric acid and acetonitrile as eluent (linear gradient from 10% acetonitrile to 95% acetonitrile).
If more than one Log P value is available within the same method, all the values are given and separated by “+”.
Calibration was done with straight-chain alkan2-ones (with 3 to 16 carbon atoms) with known Log P values (measurement of Log P values using retention times with linear interpolation between successive alkanones). Lambda-max-values were determined using UV-spectra from 200 nm to 400 nm and the peak values of the chromatographic signals.

Consider `COc1ccc(CC(O)(Cn2cnnn2)C2(C)CC2)cc1` (stereo not shown) [Ia-34], for which the LogP is 2.35^[a]. Consider `OC(Cc1cccc(Cl)c1F)(Cn1ncnn1)C1(Cl)CC1` (stereo not shown) [Ib-06], for which the LogP was 3.19^[a].

In the case of `Cc1cccc(CC(O)(Cn2cnnn2)C2(C)CC2)c1` (stereo not shown) [Ia-65], the LogP was 2.73^[a]. On the same count and under the same terms, to `CC=C(c1cccc(Cl)c1F)C(O)(Cn1cnnn1)C1(Cl)CC1` (racemic) [Ia-en-05] belongs 3.00^[a]; to `COC(Cc1ccccc1Cl)(Cn1cnnn1)C1(Cl)CC1` (stereo not shown) [Ia-37], 3.19^[a]; to `OC(Cc1cc(F)ccc1F)(Cn1cnnn1)C1(Cl)CC1` (stereo not shown) [Ia-42], 2.52^[a].

With `OC(Cc1ccc(F)cc1Cl)(Cn1cnnn1)C1(Cl)CC1` (stereo not shown) [Ia-39], the LogP was 2.90^[a].

Regarding `COc1ccccc1CC(O)(Cn1cnnn1)C1(Cl)CC1` (stereo not shown) [Ia-14], the LogP is 2.73^[a].

On to `COc1ccc(F)c(CC(O)(Cn2cnnn2)C2(Cl)CC2)c1F` (stereo not shown) [Ia-46], for which the LogP was 2.51^[a]. For `CC1(C(O)(Cc2cccc(Br)c2)Cn2cnnn2)CC1` (stereo not shown) [Ia-63], the LogP was 2.84^[a].

As for `CC=C(c1ccccc1F)C(O)(Cn1cnnn1)C1(Cl)CC1` (racemic) [Ia-en-04], the LogP was 2.66^[a].

On to `CC1(C(O)(Cc2ccccc2F)Cn2cnnn2)CC1` (stereo not shown) [Ia-68], for which the LogP was 2.45^[a].

For the molecule `OC(Cc1cccc(F)c1)(Cn1cnnn1)C1(Cl)CC1` (stereo not shown) [Ia-69], the LogP is 2.54^[a]. Still for that read-out and setting: to `OC(Cc1ccccc1Br)(Cn1cnnn1)C1(F)CC1` (stereo not shown) [Ia-21] belongs 2.49^[a]; to `COc1ccc(F)c(CC(O)(Cn2ncnn2)C2(Cl)CC2)c1F` (stereo not shown) [Ib-20], 2.86^[a]; to `COc1ccc(CC(O)(Cn2cnnn2)C2(Cl)CC2)c(F)c1F` (stereo not shown) [Ia-48], 2.59^[a]. Same read-out and setting: the figure for `OC(Cc1ccc(Br)cc1F)(Cn1cnnn1)C1(Cl)CC1` (stereo not shown) [Ia-67] is 3.23^[a]; for `OC(Cc1c(F)cccc1Cl)(Cn1cnnn1)C1(Cl)CC1` (stereo not shown) [Ia-72] it is 2.90^[a]. On the same count and under the same terms, the figure for `OC(Cc1cncc(F)c1)(Cn1ncnn1)C1(Cl)CC1` (stereo not shown) [Ib-23] is 1.76^[a]; for `OC(Cc1cc(F)c(F)cc1F)(Cn1cnnn1)C1(Cl)CC1` (stereo not shown) [Ia-51] it is 2.66^[a]; for `OC(Cc1c(F)ccc(F)c1F)(Cn1cnnn1)C1(Cl)CC1` (stereo not shown) [Ia-54] it is 2.60^[a].

In the case of `OC(Cc1c(F)cc(F)cc1F)(Cn1ncnn1)C1(Cl)CC1` (stereo not shown) [Ib-07], the LogP is 3.09^[a]. For the molecule `OC(Cc1cccc(F)c1F)(Cn1cnnn1)C1(Cl)CC1` (stereo not shown) [Ia-06], the LogP was 2.46^[a]. As for `C=C(c1cccc(F)c1F)C(O)(Cn1cnnn1)C1(Cl)CC1` (stereo not shown) [Ia-en-08], the LogP is 2.57^[a]. Still for that read-out and setting: the figure for `OC(Cc1c(F)cccc1F)(Cn1cnnn1)C1(Cl)CC1` (stereo not shown) [Ia-13] is 2.52^[a]; for `OC(Cc1ccc(F)c(F)c1F)(Cn1ncnn1)C1(Cl)CC1` (stereo not shown) [Ib-10] it is 3.11^[a]; for `OC(Cc1ccccc1C(F)(F)F)(Cn1cnnn1)C1(F)CC1` (stereo not shown) [Ia-76] it is 2.71^[a]. For `COc1cccc(CC(O)(Cn2cnnn2)C2(Cl)CC2)c1` (stereo not shown) [Ia-60], the LogP is 2.42^[a].

On to `OC(Cc1ccc(F)c(Cl)c1)(Cn1ncnn1)C1(Cl)CC1` (stereo not shown) [Ib-18], for which the LogP was 3.33^[a]. For the molecule `CC(c1cc(F)ccc1F)C(O)(Cn1cnnn1)C1(Cl)CC1` (single isomer, unassigned) [Ia-16], the LogP is 2.66^[a]. Regarding `OC(Cc1cccc(Br)c1)(Cn1cnnn1)C1(F)CC1` (stereo not shown) [Ia-23], the LogP is 2.59^[a]. Same read-out and setting: the figure for `OC(Cc1ccc(Cl)cc1F)(Cn1cnnn1)C1(Cl)CC1` (stereo not shown) [Ia-40] is 2.90^[a]. In the case of `OC(Cc1ccc(F)c(Cl)c1F)(Cn1ncnn1)C1(Cl)CC1` (stereo not shown) [Ib-12], the LogP was 3.37^[a]. Regarding `O=C(Cn1cnnn1)C1(F)CC1` [XVIa-03], the LogP is 0.59^[a].

For the molecule `OC(Cc1cccc(Cl)c1)(Cn1cnnn1)C1(Cl)CC1` (stereo not shown) [Ia-47], the LogP was 2.82^[a].

Consider `OC(Cc1cncc(Cl)c1)(Cn1cnnn1)C1(Cl)CC1` (stereo not shown) [Ia-74], for which the LogP is 1.86^[a]. With `Cc1cccc(CC(O)(Cn2cnnn2)C2(Cl)CC2)c1` (stereo not shown) [Ia-64], the LogP is 2.78^[a]. Regarding `Cc1ccc(F)c(CC(O)(Cn2cnnn2)C2(Cl)CC2)c1Cl` (stereo not shown) [Ia-45], the LogP is 3.23^[a]. For `COc1ccc(CC(O)(Cn2cnnn2)C2(Cl)CC2)cc1` (stereo not shown) [Ia-58], the LogP is 2.40^[a]. Turning to `OC(Cc1cccc(Br)c1F)(Cn1cnnn1)C1(Cl)CC1` (stereo not shown) [Ia-41], the LogP is 2.92^[a]. Regarding `Cc1ccc(CC(O)(Cn2ncnn2)C2(Cl)CC2)c(F)c1F` (stereo not shown) [Ib-21], the LogP is 3.33^[a]. Same read-out and setting: the figure for `OC(Cc1cc(F)cc(F)c1F)(Cn1cnnn1)C1(Cl)CC1` (stereo not shown) [Ia-43] is 2.66^[a]. The molecule `OC(Cc1ccccc1Cl)(Cn1ncnn1)C1(Cl)CC1` (stereo not shown) [Ib-04, 2-(1-chlorocyclopropyl)-1-(2-chlorophenyl)-3-(tetrazol-2-yl)propan-2-ol] displayed a chromatographic logP (method [a]: LC-UV, acidic range, 0.1% formic acid in water and acetonitrile as eluent) of 3.2. On to `CC1(C(=O)Cn2cnnn2)CC1` [XVIa-02], for which the LogP was 0.79^[a]. With `OC(Cc1cncc(Cl)c1)(Cn1ncnn1)C1(Cl)CC1` (stereo not shown) [Ib-01], the LogP is 2.13^[a]. Same read-out and setting: to `OC(Cc1c(F)cc(F)cc1F)(Cn1cnnn1)C1(Cl)CC1` (stereo not shown) [Ia-35] belongs 2.64^[a].

For the molecule `OC(Cc1c(F)cc(Cl)cc1F)(Cn1cnnn1)C1(Cl)CC1` (stereo not shown) [Ia-75], the LogP was 2.98^[a]. Take `C=C(c1ccccc1F)C(O)(Cn1ncnn1)C1(Cl)CC1` (stereo not shown) [Ib-en-01]: the LogP is 2.96^[a]. On to `CC1(C(O)(Cc2ccccc2C(F)(F)F)Cn2cnnn2)CC1` (stereo not shown) [Ia-11], for which the LogP was 2.94^[a]. Still for that read-out and setting: the figure for `OC(Cc1cccnc1F)(Cn1ncnn1)C1(Cl)CC1` (stereo not shown) [Ib-25] is 1.91^[a]; for `Cc1ccc(F)c(CC(O)(Cn2cnnn2)C2(Cl)CC2)c1F` (stereo not shown) [Ia-36] it is 2.90^[a]; for `Cc1ccc(CC(O)(Cn2cnnn2)C2(C)CC2)cc1` (stereo not shown) [Ia-30] it is 2.73^[a].

On to `CC1(C(O)(Cc2ccccc2Br)Cn2cnnn2)CC1` (stereo not shown) [Ia-09], for which the LogP was 2.92^[a]. On to `C=C(c1cccc(Cl)c1F)C(O)(Cn1cnnn1)C1(Cl)CC1` (stereo not shown) [Ia-en-10], for which the LogP is 2.82^[a]. As to `CC=C(c1cccc(F)c1F)C(O)(Cn1cnnn1)C1(Cl)CC1` (racemic) [Ia-en-07], the LogP was 2.75^[a]. On to `Cc1ccc(F)c(CC(O)(Cn2ncnn2)C2(Cl)CC2)c1F` (stereo not shown) [Ib-09], for which the LogP was 3.37^[a]. As to `Cc1ccc(CC(O)(Cn2cnnn2)C2(F)CC2)cc1` (stereo not shown) [Ia-33], the LogP was 2.44^[a].

With `OC(Cc1ccc(F)c(F)c1)(Cn1ncnn1)C1(Cl)CC1` (stereo not shown) [Ib-24], the LogP is 3.04^[a]. For `OC(Cc1cncc(F)c1)(Cn1cnnn1)C1(Cl)CC1` (stereo not shown) [Ia-59], the LogP is 1.53^[a]. For the molecule `OC(Cc1cc(Cl)ccc1F)(Cn1cnnn1)C1(Cl)CC1` (stereo not shown) [Ia-29], the LogP was 2.86^[a]. Regarding `CC(c1cccc(F)c1F)C(O)(Cn1cnnn1)C1(Cl)CC1` (stereo not shown) [Ia-25], the LogP was 2.96^[a]. Still for that read-out and setting: to `COc1cccc(CC(O)(Cn2cnnn2)C2(F)CC2)c1` (stereo not shown) [Ia-26] belongs 2.11^[a]. For `COc1ccc(CC(O)(Cn2ncnn2)C2(Cl)CC2)c(F)c1F` (stereo not shown) [Ib-13], the LogP is 2.94^[a].

In the case of `C=C(c1ccccc1)C(O)(Cn1cnnn1)C1(Cl)CC1` (stereo not shown) [Ia-en-03], the LogP was 2.46^[a].

The record behind these values is patent publication US11213031B2, “Tetrazolylpropyl derivatives and their use as fungicides” (BAYER AKTIENGESELLSCHAFT, priority 2017, dated 2022).
